# Experimental data: patent US20160326142A1, “PYRAZOLE CARBOXAMIDE COMPOUNDS, COMPOSITIONS AND METHODS OF USE” (Genentech, Inc., priority 2012, published 2016)
# Target: T1, ITK (Homo sapiens, UniProt Q08881)
# T1 construct: purchased Invitrogen PV3875
# T1 sequence (Q08881 1-620): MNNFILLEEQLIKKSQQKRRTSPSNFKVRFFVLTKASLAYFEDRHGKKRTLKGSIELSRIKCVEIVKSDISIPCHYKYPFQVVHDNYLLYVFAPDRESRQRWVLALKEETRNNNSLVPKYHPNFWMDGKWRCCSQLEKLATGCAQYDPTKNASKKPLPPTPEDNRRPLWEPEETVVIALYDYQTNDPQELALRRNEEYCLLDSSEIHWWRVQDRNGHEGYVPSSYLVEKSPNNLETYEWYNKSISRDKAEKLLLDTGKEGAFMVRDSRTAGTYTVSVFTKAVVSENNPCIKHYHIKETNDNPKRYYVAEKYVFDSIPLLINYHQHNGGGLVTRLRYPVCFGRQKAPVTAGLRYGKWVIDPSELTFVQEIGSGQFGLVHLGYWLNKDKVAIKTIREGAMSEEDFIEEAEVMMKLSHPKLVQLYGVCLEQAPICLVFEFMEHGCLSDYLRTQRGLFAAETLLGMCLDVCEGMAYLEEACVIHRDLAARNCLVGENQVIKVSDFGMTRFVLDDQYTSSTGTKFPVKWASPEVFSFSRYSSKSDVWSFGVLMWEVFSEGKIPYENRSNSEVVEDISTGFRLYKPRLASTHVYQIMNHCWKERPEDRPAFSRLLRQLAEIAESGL
# Experiment: ITK enzyme assay (Caliper or LCMS peptide phosphorylation)
# Type: biochemical
# Settings: purified ITK (Invitrogen PV3875), 20 μM ATP, Ki by Morrison's quadratic equation
# In short: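 Purified human ITK peptide phosphorylation, quenched with EDTA (50 mM final) for Caliper LabChip separation or TCA (5% v/v final) for UPLC-MS/MS MRM quantification. Ki derived via Morrison tight-binding equation, corrected for competitive inhibition using ATP concentration relative to Km,app.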
row,SMILES,Ki
1,"CC1(C)CCc2c(C(=O)Nc3cnn(C(c4cccnc4)C4CC[S+]([O-])CC4)c3)n[nH]c2C1 (single isomer, unassigned) [Example 147b, 6,6-dimethyl-N-(1-((1-oxidotetrahydro-2H-thiopyran-4-yl)(pyridin-3-yl)methyl)-1H-pyrazol-4-yl)-4,5,6,7-tetrahydro-1H-indazole-3-carboxamide]",4 nM
2,"CC1(C)CCc2c(C(=O)Nc3cnn(C(c4cccnc4)C4CC[S+]([O-])CC4)c3)n[nH]c2C1 (single isomer, unassigned) [Example 147c, 6,6-dimethyl-N-(1-((1-oxidotetrahydro-2H-thiopyran-4-yl)(pyridin-3-yl)methyl)-1H-pyrazol-4-yl)-4,5,6,7-tetrahydro-1H-indazole-3-carboxamide]",7 nM
3,"CC1(C)CCc2c(C(=O)Nc3cnn(C(c4cccnc4)C4CC[S+]([O-])CC4)c3)n[nH]c2C1 (single isomer, unassigned) [Example 147d, 6,6-dimethyl-N-(1-((1-oxidotetrahydro-2H-thiopyran-4-yl)(pyridin-3-yl)methyl)-1H-pyrazol-4-yl)-4,5,6,7-tetrahydro-1H-indazole-3-carboxamide]",0.6 nM
4,"CC12Cc3c(C(=O)Nc4cnn(C(c5ccccc5)C5CCS(=O)(=O)CC5)c4)n[nH]c3C1C2 (single isomer, unassigned) [Example 152a, N-(1-((1,1-dioxidotetrahydro-2H-thiopyran-4-yl)(phenyl)methyl)-1H-pyrazol-4-yl)-4a-methyl-4,4a,5,5a-tetrahydro-1H-cyclopropa[4,5]cyclopenta[1,2-c]pyrazole-3-carboxamide]",42 nM
5,"CC12Cc3c(C(=O)Nc4cnn(C(c5ccccc5)C5CCS(=O)(=O)CC5)c4)n[nH]c3C1C2 (single isomer, unassigned) [Example 152b, N-(1-((1,1-dioxidotetrahydro-2H-thiopyran-4-yl)(phenyl)methyl)-1H-pyrazol-4-yl)-4a-methyl-4,4a,5,5a-tetrahydro-1H-cyclopropa[4,5]cyclopenta[1,2-c]pyrazole-3-carboxamide]",3 nM
6,"CC12Cc3c(C(=O)Nc4cnn(C(c5ccccc5)C5CCS(=O)(=O)CC5)c4)n[nH]c3C1C2 (single isomer, unassigned) [Example 152c, N-(1-((1,1-dioxidotetrahydro-2H-thiopyran-4-yl)(phenyl)methyl)-1H-pyrazol-4-yl)-4a-methyl-4,4a,5,5a-tetrahydro-1H-cyclopropa[4,5]cyclopenta[1,2-c]pyrazole-3-carboxamide]",2 nM
7,"CC1(C)CCc2c(C(=O)Nc3cnn(C(c4cccc(S(C)(=O)=O)c4)C4CCOCC4)c3)n[nH]c2C1 (single isomer, unassigned) [Example 154a, 6,6-dimethyl-N-(1-((3-(methylsulfonyl)phenyl)(tetrahydro-2H-pyran-4-yl)methyl)-1H-pyrazol-4-yl)-4,5,6,7-tetrahydro-1H-indazole-3-carboxamide]",0.1 nM
8,"CC1(C)CCc2c(C(=O)Nc3cnn(C(c4cccc(S(C)(=O)=O)c4)C4CCOCC4)c3)n[nH]c2C1 (single isomer, unassigned) [Example 154b, 6,6-dimethyl-N-(1-((3-(methylsulfonyl)phenyl)(tetrahydro-2H-pyran-4-yl)methyl)-1H-pyrazol-4-yl)-4,5,6,7-tetrahydro-1H-indazole-3-carboxamide]",1 nM
9,"N#Cc1cccc(Cn2cc(NC(=O)c3n[nH]c4c3CCCC4)cn2)c1 [Example 3, N-(1-(3-cyanobenzyl)-1H-pyrazol-4-yl)-4,5,6,7-tetrahydro-1H-indazole-3-carboxamide]",31 nM

# Other lines, results leading:
row,Ki,SMILES
1,> 400 nM,"O=C1CCC2(CCc3c(C(=O)Nc4cnn(Cc5ccccc5)c4)n[nH]c3C2)N1 (single isomer, unassigned) [Example 148a, N-(1-benzyl-1H-pyrazol-4-yl)-5′-oxo-1,4,5,7-tetrahydrospiro[indazole-6,2′-pyrrolidine]-3-carboxamide]"
2,> 400 nM,"O=C1CCC2(CCc3c(C(=O)Nc4cnn(Cc5ccccc5)c4)n[nH]c3C2)N1 (single isomer, unassigned) [Example 148b, N-(1-benzyl-1H-pyrazol-4-yl)-5′-oxo-1,4,5,7-tetrahydrospiro[indazole-6,2′-pyrrolidine]-3-carboxamide]"
3,> 400 nM,"CC1(N2CCOCC2)CCc2c(C(=O)Nc3cnn(Cc4ccccc4)c3)n[nH]c2C1 (single isomer, unassigned) [Example 149a, N-(1-benzyl-1H-pyrazol-4-yl)-6-methyl-6-morpholino-4,5,6,7-tetrahydro-1H-indazole-3-carboxamide]"
4,> 400 nM,"CC1(N2CCOCC2)CCc2c(C(=O)Nc3cnn(Cc4ccccc4)c3)n[nH]c2C1 (single isomer, unassigned) [Example 149b, N-(1-benzyl-1H-pyrazol-4-yl)-6-methyl-6-morpholino-4,5,6,7-tetrahydro-1H-indazole-3-carboxamide]"
5,130 nM,"CC12Cc3[nH]nc(C(=O)Nc4cnn(Cc5ccccc5)c4)c3C1C2 (single isomer, unassigned) [Example 150a, N-(1-benzyl-1H-pyrazol-4-yl)-4a-methyl-3b,4,4a,5-tetrahydro-1H-cyclopropa[3,4]cyclopent a[1,2-c]pyrazole-3-carboxamide]"
6,32 nM,"CC12Cc3[nH]nc(C(=O)Nc4cnn(Cc5ccccc5)c4)c3C1C2 (single isomer, unassigned) [Example 150b, N-(1-benzyl-1H-pyrazol-4-yl)-4a-methyl-3b,4,4a,5-tetrahydro-1H-cyclopropa[3,4]cyclopent a[1,2-c]pyrazole-3-carboxamide]"
7,16 nM,"CC12Cc3c(C(=O)Nc4cnn(Cc5ccccc5)c4)n[nH]c3C1C2 (single isomer, unassigned) [Example 151a, N-(1-benzyl-1H-pyrazol-4-yl)-4a-methyl-4,4a,5,5a-tetrahydro-1H-cyclopropa[4,5]cyclopent a[1,2-c]pyrazole-3-carboxamide]"
8,12 nM,"CC12Cc3c(C(=O)Nc4cnn(Cc5ccccc5)c4)n[nH]c3C1C2 (single isomer, unassigned) [Example 151b, N-(1-benzyl-1H-pyrazol-4-yl)-4a-methyl-4,4a,5,5a-tetrahydro-1H-cyclopropa[4,5]cyclopent a[1,2-c]pyrazole-3-carboxamide]"
9,15 nM,"CC12Cc3c(C(=O)Nc4cnn(C(c5ccccc5)C5CCS(=O)(=O)CC5)c4)n[nH]c3C1C2 (single isomer, unassigned) [Example 152d, N-(1-((1,1-dioxidotetrahydro-2H-thiopyran-4-yl)(phenyl)methyl)-1H-pyrazol-4-yl)-4a-methyl-4,4a,5,5a-tetrahydro-1H-cyclopropa[4,5]cyclopenta[1,2-c]pyrazole-3-carboxamide]"
10,58 nM,"CC12CCc3c(C(=O)Nc4cnn(Cc5ccccc5)c4)n[nH]c3C1C2 (single isomer, unassigned) [Example 153a, N-(1-benzyl-1H-pyrazol-4-yl)-5a-methyl-1,4,5,5a,6,6a-hexahydrocyclopropa[g]indazole-3-c arboxamide]"
11,15 nM,"CC12CCc3c(C(=O)Nc4cnn(Cc5ccccc5)c4)n[nH]c3C1C2 (single isomer, unassigned) [Example 153b, N-(1-benzyl-1H-pyrazol-4-yl)-5a-methyl-1,4,5,5a,6,6a-hexahydrocyclopropa[g]indazole-3-c arboxamide]"
